Results reported in patent publication US20150344457A1, “METHODS OF INHIBITING PRMT5” (EPIZYME, INC., priority 2012, published 2015).
Where two headings read alike, the source gives them in different places.

Molecular target: T1, PRMT5/MEP50 (Homo sapiens, UniProt O14744)
T1 construct: Expressed full-length human Flag-PRMT5/6His-MeP50 protein complex was purified; made in house; host or cells: Spodoptera frugiperda (SF9) insect cells, baculovirus (pDEST8)
Assay: PRMT5 Biochemical Assay (PRMT5/MEP50 enzyme assay on peptide substrate, 3H-SAM Flashplate)
Details: read-out: Biochemical IC50
Description: S-adenosylmethionine (SAM), S-adenosylhomocysteine (SAH), bicine, KCl, Tween20, dimethylsulfoxide (DMSO), bovine skin gelatin (BSG), and Tris(2-carboxyethyl)phosphine hydrochloride solution (TCEP) were purchased from Sigma-Aldrich at the highest level of purity possible. ^3H-SAM was purchase from American Radiolabeled Chemicals with a specific activity of 80 Ci/mmol 384-well streptavidin Flashplates were purchased from PerkinElmer.
Peptide representative of human histone H4 residues 1-15 was synthesized with a C-terminal linker-affinity tag motif and a C-terminal amide cap by 21st Century Biochemicals. […] The sequence was Ac-[…][K-Biot]-amide (SEQ ID NO.:3).
Full-length human MEP50 (NM_024102) clone was amplified from a human testis cDNA library incorporating a 5′ sequence encoding a 6-histidine tag (MHHHHHH) (SEQ ID NO.:5) fused directly to Arg 2 of MEP50. The amplified genes were sublconed into pENTR/D/TEV (Life Technologies) and subsequently transferred by Gateway™ attL×attR recombination to pDEST8 baculvirus expression vector (Life Technologies).
Recombinant baculovirus and Baculovirus-Infected Insect Cells (BIIC) were generated according to Bac-to-Bac kit instructions (Life Technologies) and Wasilko, 2006, respectively. Protein over-expression was accomplished by infecting exponentially growing Spodoptera frugiperda (SF9) cell culture at 1.2×10^6 cell/ml with a 5000 fold dilution of BIIC stock. Infections were carried out at 27° C. for 72 hours, harvested by centrifugation, and stored at −80° C. for purification.
Flag-PRMT5/6His-MeP50 was eluted with 300 mM Imidazole in the same buffer. […] Reference: Wasilko, D. J. and S. E. Lee: “TIPS: titerless infected-cells preservation and scale-up” Bioprocess J., 5 (2006), pp. 29-32.
General Procedure for PRMT5/MEP50 Enzyme Assays on Peptide Substrates.
The assays were all performed in a buffer consisting of 20 mM Bicine (pH=7.6), 1 mM TCEP, 0.005% BSG, and 0.002% Tween20, prepared on the day of use. Compounds in 100% DMSO (1 ul) were spotted into a polypropylene 384-well V-bottom plates (Greiner) using a Platemate Plus outfitted with a 384-channel head (Thermo Scientific). DMSO (1 ul) was added to Columns 11, 12, 23, 24, rows A-H for the maximum signal control and 1 ul of SAH, a known product and inhibitor of PRMT5/MEP50, was added to columns 11, 12, 23, 24, rows I-P for the minimum signal control. A cocktail (40 ul) containing the PRMT5/MEP50 enzyme and the peptide was added by Multidrop Combi (Thermo-Fisher). The compounds were allowed to incubate with PRMT5/MEP50 for 30 min at 25 degrees Celsius, then a cocktail (10 ul) containing ^3H-SAM was added to initiate the reaction (final volume=51 ul). The final concentrations of the components were as follows: PRMT5/MEP50 was 4 nM, ^3H-SAM was 75 nM, peptide was 40 nM, SAH in the minimum signal control wells was 100 uM, and the DMSO concentration was 1%. The assays were stopped by the addition of non-radioactive SAM (10 ul) to a final concentration of 600 uM, which dilutes the ^3H-SAM to a level where its incorporation into the peptide substrate is no longer detectable. 50 ul of the reaction in the 384-well polypropylene plate was then transferred to a 384-well Flashplate and the biotinylated peptides were allowed to bind to the streptavidin surface for at least 1 hour before being washed three times with 0.1% Tween20 in a Biotek ELx405 plate washer. The plates were then read in a PerkinElmer TopCount plate reader to measure the quantity of ^3H-labeled peptide bound to the Flashplate surface, measured as disintegrations per minute (dpm) or alternatively, referred to as counts per minute (cpm).
where dpm=disintegrations per minute, cmpd=signal in assay well, and min and max are the respective minimum and maximum signal controls.
where top and bottom are the normally allowed to float, but may be fixed at 100 or 0 respectively in a 3-parameter fit.

[1] = Table A-2, PRMT5/MEP50 4 nM, 3H-SAM 75 nM, peptide 40 nM
[2] = Table B-2, PRMT5/MEP50 4 nM, 3H-SAM 75 nM, peptide 40 nM
[3] = PRMT5 biochemical assay, Table C-2

T1 sequence (O14744 with tags, fused parts or gaps): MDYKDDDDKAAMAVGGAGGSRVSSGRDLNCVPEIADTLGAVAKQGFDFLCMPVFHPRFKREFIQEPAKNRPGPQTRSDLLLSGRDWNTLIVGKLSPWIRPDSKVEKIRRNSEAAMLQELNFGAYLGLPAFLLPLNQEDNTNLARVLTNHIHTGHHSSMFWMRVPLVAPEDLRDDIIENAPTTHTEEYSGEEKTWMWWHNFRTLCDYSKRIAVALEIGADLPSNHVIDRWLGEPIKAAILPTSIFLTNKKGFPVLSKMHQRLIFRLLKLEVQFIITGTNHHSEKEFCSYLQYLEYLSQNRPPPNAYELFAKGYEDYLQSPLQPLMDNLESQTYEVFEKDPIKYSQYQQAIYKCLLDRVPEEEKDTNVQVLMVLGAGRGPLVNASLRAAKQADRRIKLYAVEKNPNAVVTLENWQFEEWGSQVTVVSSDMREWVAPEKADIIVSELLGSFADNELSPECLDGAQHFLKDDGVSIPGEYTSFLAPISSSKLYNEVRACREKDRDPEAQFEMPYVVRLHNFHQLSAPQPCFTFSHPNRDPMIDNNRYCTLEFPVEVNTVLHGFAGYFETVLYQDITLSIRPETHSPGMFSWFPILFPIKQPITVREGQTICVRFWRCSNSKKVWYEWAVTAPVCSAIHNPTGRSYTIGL
T1 sequence (Q9BQA1 with tags, fused parts or gaps partner limits assumed): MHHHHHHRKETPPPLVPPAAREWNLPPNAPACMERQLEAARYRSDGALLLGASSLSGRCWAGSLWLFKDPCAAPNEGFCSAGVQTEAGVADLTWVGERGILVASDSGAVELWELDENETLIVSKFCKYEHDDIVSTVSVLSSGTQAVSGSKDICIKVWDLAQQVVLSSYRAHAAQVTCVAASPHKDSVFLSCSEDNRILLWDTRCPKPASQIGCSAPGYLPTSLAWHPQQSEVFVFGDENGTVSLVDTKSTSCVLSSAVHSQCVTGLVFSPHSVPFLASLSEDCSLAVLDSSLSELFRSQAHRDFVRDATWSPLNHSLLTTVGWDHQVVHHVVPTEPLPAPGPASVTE

Row | SMILES | IC50 (Table D-2) [nM] | IC50 [2] [nM] | also measured
1 | O=C(COc1ccc(F)cc1)NCC(O)CN1CCc2ccccc2C1 (stereo not shown) [Compound A10] | – | – | IC50 [1]: 1000 to 10000 nM
2 | O=C(NC[C@@H](O)CN1CCc2ccccc2C1)Oc1ccccc1 [Compound B11.] | – | < 100 | –
3 | O=C1Cc2ccccc2N1CC(O)CN1CCc2ccccc2C1 (stereo not shown) [Compound C1] | – | – | IC50 [3]: 101 to 1000 nM
4 | O=C(NCC(O)CN1CCc2ccccc2C1)c1ccccn1 (stereo not shown) [Compound B17.] | – | 101 to 1000 | –
5 | O=C(NCC(O)CN1CCc2ccccc2C1)c1cccc(CN2CCNCC2)c1 (stereo not shown) [Compound B29.] | – | < 100 | –
6 | NC(=O)c1ccc(OCC(=O)NCC(O)CN2CCc3ccccc3C2)cc1 (stereo not shown) [Compound A13] | – | – | IC50 [1]: 1000 to 10000 nM
7 | CC(=O)Nc1cncc(OCC(=O)NCC(O)CN2CCc3ccccc3C2)c1 (stereo not shown) [Compound A148] | – | – | IC50 [1]: > 10000 nM
8 | CS(=O)(=O)N1CCN(CC(O)CN2CCc3ccccc3C2)C(=O)C1 (stereo not shown) [Compound C22] | – | – | IC50 [3]: 1000 to 10000 nM
9 | COc1cc(NC2CCOCC2)cc(C(=O)NCC(O)CN2CCc3ccccc3C2)c1 (stereo not shown) [Compound B56.] | – | 101 to 1000 | –
10 | O=C1COc2ccccc2N1CC(O)CN1CCc2ccccc2C1 (stereo not shown) [Compound C31] | – | – | IC50 [3]: 101 to 1000 nM
11 | O=C1CN(c2cccc(Cl)c2)CCN1CC(O)CN1CCc2ccccc2C1 (stereo not shown) [Compound C5] | – | – | IC50 [3]: < 100 nM
12 | CC(=O)Nc1cccc(C(=O)NCC(O)CN2CCc3ccccc3C2)c1 (stereo not shown) [Compound B26.] | – | 101 to 1000 | –
13 | O=C(NC[C@H](O)CN1CCc2ccccc2C1)c1cccc(NC2CCOCC2)c1 [Compound B44.] | – | < 100 | –
14 | CS(=O)(=O)Nc1cccc(C(=O)NCC(O)CN2CCc3ccccc3C2)c1 (stereo not shown) [Compound B24.] | – | < 100 | –
15 | O=C(NCC(O)CN1CCc2ccccc2C1)c1cccc(NC2CCOCC2)c1 (stereo not shown) [Compound B16.] | – | < 100 | –
16 | NS(=O)(=O)c1ccc(C(=O)NCC(O)CN2CCc3ccccc3C2)cc1 (stereo not shown) [Compound B21.] | – | 101 to 1000 | –
17 | NC(=O)c1ccc(C(=O)NCC(O)CN2CCc3ccccc3C2)cc1 (stereo not shown) [Compound B22.] | – | 101 to 1000 | –
18 | CCN(c1cccc(C(=O)NCC(O)CN2CCc3ccccc3C2)c1C)C1CCOCC1 (stereo not shown) [Compound B41.] | – | < 100 | –
19 | O=C(NCC(O)CN1CCc2ccccc2C1)c1cccc(N2CCOCC2)c1 (stereo not shown) [Compound B14.] | – | < 100 | –

Row | SMILES | IC50 (Table D-2) [nM] | IC50 [2] [nM] | also measured
20 | O=C(COc1cccc2cccnc12)NCC(O)CN1Cc2ccccc2C1 (stereo not shown) [Compound E19.] | – | – | IC50 (Table E-2): 101 to 1000 nM
21 | CN(CC(O)CN1CCc2ccccc2C1)C(=O)CCc1ccccc1 (stereo not shown) [Compound A3] | – | – | IC50 [1]: 1000 to 10000 nM
22 | O=C(NCC(O)CN1CCc2ccccc2C1)c1cncc(NC2CCOCC2)c1 (stereo not shown) [Compound B54.] | – | < 100 | –
23 | O=C1CN(c2cccc(F)c2)CCN1CC(O)CN1CCc2ccccc2C1 (stereo not shown) [Compound C6] | – | – | IC50 [3]: < 100 nM
24 | O=C1CN(c2cccc(N3CCOCC3)c2)CCN1CC(O)CN1CCc2ccccc2C1 (stereo not shown) [Compound C12] | – | – | IC50 [3]: < 100 nM
25 | O=C1CN(c2cncc(N3CCOCC3)c2)CCN1CC(O)CN1CCc2ccccc2C1 (stereo not shown) [Compound C8] | – | – | IC50 [3]: < 100 nM
26 | O=C(NCC(O)CN1CCc2ccccc2C1)c1cccc(CN2CCOCC2)c1 (stereo not shown) [Compound B51.] | – | 101 to 1000 | –
27 | CN1CCN(CC(O)CN2CCc3ccccc3C2)C(=O)C1 (stereo not shown) [Compound C27] | – | – | IC50 [3]: > 50000 nM
28 | O=C1CN(Cc2ccccn2)CCN1CC(O)CN1CCc2ccccc2C1 (stereo not shown) [Compound C25] | – | – | IC50 [3]: 1000 to 10000 nM
29 | C[C@H](Oc1cccc2cccnc12)C(=O)NC[C@@H](O)CN1CCc2ccccc2C1 [Compound A72] | – | – | IC50 [1]: 1000 to 10000 nM
30 | CC1(C)CC(Nc2cccc(C(=O)NCC(O)CN3CCc4ccccc4C3)c2)CCO1 (stereo not shown) [Compound B53.] | – | 101 to 1000 | –
31 | O=C(NCC(O)CN1CCc2ccccc2C1)c1cccc(N2CCNCC2)c1 (stereo not shown) [Compound B35.] | – | < 100 | –
32 | O=C(COc1ccccc1OCCN1CCOCC1)NC[C@@H](O)CN1CCc2ccccc2C1 [Compound A87] | – | – | IC50 [1]: 1000 to 10000 nM
33 | NS(=O)(=O)c1ccc(OCC(=O)NCC(O)CN2CCc3ccccc3C2)cc1 (stereo not shown) [Compound A52] | – | – | IC50 [1]: 1000 to 10000 nM
34 | O=C(NCC(O)CN1CCc2ccccc2C1)c1cccc(-c2cccnc2)c1 (stereo not shown) [Compound B8.] | – | < 100 | –
35 | O=C(Cc1ccccc1)NC[C@@H](O)CN1CCc2ccccc2C1 [Compound A57] | – | – | IC50 [1]: 10000 to 50000 nM
36 | O=C(NCC(O)CN1Cc2ccccc2C1)c1cccc(-c2ccccn2)c1 (stereo not shown) [Compound E13.] | – | – | IC50 (Table E-2): 101 to 1000 nM
37 | O=C(NCC(O)CN1CCc2ccccc2C1)c1cccc(-c2cc[nH]n2)c1 (stereo not shown) [Compound B10.] | – | < 100 | –
38 | CC(C)(C)OC(=O)Nc1cccc(C(=O)NCC(O)CN2Cc3ccccc3C2)c1 (stereo not shown) [Compound E11.] | – | – | IC50 (Table E-2): 101 to 1000 nM

More lines, main results first:

Row | IC50 (Table D-2) [nM] | IC50 [2] [nM] | SMILES | also measured
39 | 1000 to 10000 | – | OC(COc1cccc(C2CCCCC2)c1)CN1CCc2ccccc2C1 (stereo not shown) [Compound D52] | –
40 | 1000 to 10000 | – | OC(COc1cccc(-c2cnccn2)c1)CN1CCc2ccccc2C1 (stereo not shown) [Compound D155] | –
41 | 1000 to 10000 | – | Cc1cccc2c1CN(CC(O)COc1cccc(-c3ccc4ncn(C)c4c3)c1)CC2 (stereo not shown) [Compound D192] | –
42 | 1000 to 10000 | – | CC1CN(CC(O)COc2cccc(-c3ccc4ncn(C)c4c3)c2)Cc2ccccc21 (stereo not shown) [Compound D101] | –
43 | 101 to 1000 | – | Cc1cc(OCC(O)CN2CCc3ccccc3C2)c(C)cc1CN1CCOCC1 (stereo not shown) [Compound D17] | –
44 | 1000 to 10000 | – | OC(COc1ccc(-c2ccn[nH]2)cc1)CN1CCc2ccccc2C1 (stereo not shown) [Compound D48] | –
45 | 1000 to 10000 | – | OC(COc1cccc(-c2ccccn2)c1)CN1CCc2ccccc2C1 (stereo not shown) [Compound D98] | –
46 | 1000 to 10000 | – | CC1Cc2ccccc2CN1CC(O)COc1cccc(-c2ccc3ncn(C)c3c2)c1 (stereo not shown) [Compound D122] | –
47 | 101 to 1000 | – | O=C(Cn1ccc2cnc(-c3cccc(OCC(O)CN4CCc5ccccc5C4)c3)nc21)N1CCCC1 (stereo not shown) [Compound D231] | –
48 | 1000 to 10000 | – | Cn1cnc2ccc(-c3cccc(OCC(O)CN4CCc5ccc(Cl)cc5C4)c3)cc21 (stereo not shown) [Compound D214] | –
49 | 1000 to 10000 | – | COc1ccc(Cl)c(-c2cccc(OCC(O)CN3CCc4ccccc4C3)c2)c1 (stereo not shown) [Compound D64] | –
50 | 1000 to 10000 | – | OC(COc1cccc(N2CCc3[nH]nc(-c4ccccc4)c3C2)c1)CN1CCc2ccccc2C1 (stereo not shown) [Compound D194] | –
51 | 10000 to 40000 | – | OC(COCc1ccncc1)CN1CCc2ccccc2C1 (stereo not shown) [Compound D284] | –
52 | 1000 to 10000 | – | CN(C(=O)c1cncn1C)c1cccc(OCC(O)CN2CCc3ccccc3C2)c1 (stereo not shown) [Compound D203] | –
53 | 101 to 1000 | – | CC(=O)N1CCC(n2cnc3ccc(-c4cccc(OCC(O)CN5CCc6ccccc6C5)c4)cc32)CC1 (stereo not shown) [Compound D228] | –
54 | < 100 | – | CN1CC(n2cnc3ccc(-c4ccnc(NCC(O)CN5CCc6ccccc6C5)c4)cc32)C1 (stereo not shown) [Compound D230] | –
55 | 1000 to 10000 | – | OC(COCc1ccc(CN2CCOCC2)cc1)CN1CCc2ccccc2C1 (stereo not shown) [Compound D46] | –
